The text below walks through data of article PMC3961306, “Comparison of the Cancer Gene Targeting and Biochemical Selectivities of All Targeted Kinase Inhibitors Approved for Clinical Use” (PLoS ONE, 2014).

Holding throughout (test): Kinase profiling in a biochemical assay panel (mobility shift assays and ELISA), %-inhibition at 1 μM; selectivity entropy
Test [1] has as its target T1, panel of more than 300 wild-type and mutant kinases (313 kinase panel) (Homo sapiens, UniProt Q16832).
T1 sequence (Q16832 22-855): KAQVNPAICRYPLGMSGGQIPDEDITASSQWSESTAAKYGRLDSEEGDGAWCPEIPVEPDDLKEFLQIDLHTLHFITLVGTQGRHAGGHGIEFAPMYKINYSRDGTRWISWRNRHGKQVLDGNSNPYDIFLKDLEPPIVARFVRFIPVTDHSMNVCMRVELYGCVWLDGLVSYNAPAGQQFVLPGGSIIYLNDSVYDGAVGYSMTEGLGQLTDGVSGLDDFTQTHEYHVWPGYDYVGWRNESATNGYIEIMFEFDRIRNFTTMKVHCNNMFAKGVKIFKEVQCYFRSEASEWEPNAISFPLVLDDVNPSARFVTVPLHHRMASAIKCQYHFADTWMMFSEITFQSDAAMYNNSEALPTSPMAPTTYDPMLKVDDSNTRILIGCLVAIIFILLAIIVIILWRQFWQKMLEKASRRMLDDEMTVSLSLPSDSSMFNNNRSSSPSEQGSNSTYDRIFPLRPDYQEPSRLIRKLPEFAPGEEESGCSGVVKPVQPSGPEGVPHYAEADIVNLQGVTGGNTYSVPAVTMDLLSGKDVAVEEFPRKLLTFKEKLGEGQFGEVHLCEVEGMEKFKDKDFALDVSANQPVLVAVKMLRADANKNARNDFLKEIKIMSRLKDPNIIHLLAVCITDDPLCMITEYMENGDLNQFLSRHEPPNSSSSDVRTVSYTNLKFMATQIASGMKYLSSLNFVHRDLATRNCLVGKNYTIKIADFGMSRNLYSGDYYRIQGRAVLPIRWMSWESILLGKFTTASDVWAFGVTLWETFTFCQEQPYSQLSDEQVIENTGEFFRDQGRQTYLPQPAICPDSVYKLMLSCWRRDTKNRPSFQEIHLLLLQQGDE

The target in test [2] is T2, panel of more than 300 wild-type and mutant kinases (313 kinase panel) (Homo sapiens, UniProt Q9HBY8).
T2 sequence (Q9HBY8 1-367): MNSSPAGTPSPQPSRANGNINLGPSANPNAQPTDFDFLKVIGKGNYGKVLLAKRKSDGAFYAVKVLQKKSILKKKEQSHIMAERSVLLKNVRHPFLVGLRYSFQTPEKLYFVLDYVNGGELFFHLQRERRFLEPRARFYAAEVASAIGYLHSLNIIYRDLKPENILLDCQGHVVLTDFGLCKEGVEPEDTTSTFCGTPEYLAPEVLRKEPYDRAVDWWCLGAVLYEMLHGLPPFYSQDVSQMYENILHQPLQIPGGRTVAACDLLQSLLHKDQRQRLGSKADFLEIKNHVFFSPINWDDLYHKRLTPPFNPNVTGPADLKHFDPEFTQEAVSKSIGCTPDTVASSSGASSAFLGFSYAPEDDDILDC

Test [3] has as its target T3, panel of more than 300 wild-type and mutant kinases (313 kinase panel) (Homo sapiens, UniProt Q9NZJ5).
T3 sequence (Q9NZJ5 30-1116): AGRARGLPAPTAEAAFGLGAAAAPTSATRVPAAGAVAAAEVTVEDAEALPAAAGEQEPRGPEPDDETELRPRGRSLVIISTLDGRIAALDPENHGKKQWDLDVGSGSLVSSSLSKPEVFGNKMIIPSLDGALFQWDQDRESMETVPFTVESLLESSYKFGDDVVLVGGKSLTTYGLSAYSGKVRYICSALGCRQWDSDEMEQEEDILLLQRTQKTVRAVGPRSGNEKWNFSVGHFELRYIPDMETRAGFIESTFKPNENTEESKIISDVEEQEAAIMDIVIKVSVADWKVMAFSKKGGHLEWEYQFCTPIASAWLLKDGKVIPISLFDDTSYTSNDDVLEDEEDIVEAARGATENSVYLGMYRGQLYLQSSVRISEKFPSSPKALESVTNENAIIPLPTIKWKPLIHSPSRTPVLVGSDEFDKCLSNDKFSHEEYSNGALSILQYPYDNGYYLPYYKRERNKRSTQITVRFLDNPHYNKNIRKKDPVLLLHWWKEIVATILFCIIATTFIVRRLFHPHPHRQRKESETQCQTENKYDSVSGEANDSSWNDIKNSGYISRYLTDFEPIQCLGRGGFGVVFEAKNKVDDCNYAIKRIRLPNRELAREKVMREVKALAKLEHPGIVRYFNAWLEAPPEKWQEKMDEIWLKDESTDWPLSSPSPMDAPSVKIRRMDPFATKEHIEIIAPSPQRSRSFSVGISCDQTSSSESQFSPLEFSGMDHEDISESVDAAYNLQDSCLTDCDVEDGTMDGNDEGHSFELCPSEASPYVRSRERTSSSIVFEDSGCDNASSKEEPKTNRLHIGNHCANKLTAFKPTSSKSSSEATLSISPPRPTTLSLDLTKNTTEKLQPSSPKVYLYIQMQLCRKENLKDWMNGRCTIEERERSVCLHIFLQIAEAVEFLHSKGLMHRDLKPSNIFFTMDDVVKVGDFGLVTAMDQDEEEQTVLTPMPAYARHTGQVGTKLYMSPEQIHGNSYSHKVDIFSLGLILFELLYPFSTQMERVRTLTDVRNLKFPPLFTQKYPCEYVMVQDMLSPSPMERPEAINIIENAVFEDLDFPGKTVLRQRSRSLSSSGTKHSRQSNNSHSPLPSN

The test system of test [4] is panel of more than 300 wild-type and mutant kinases (313 kinase panel).
[5] abbreviates: kinase EGFR(d746-750), compound at 1 μM.
The mark [6] stands for this setting: kinase EGFR(d746-750/T790M), compound at 1 μM.
Where [7] appears, read: kinase EML4-ALK, compound at 1 μM.

Like-named read-outs stand apart in the source and are kept apart here.

`COc1cc2c(Nc3ccc(Br)cc3F)ncnc2cc1OCC1CCN(C)CC1` [vandetanib]: the “%-inhibition of DDR2” value in test [1] (kinase DDR2, compound at 1 μM) is 101%. In addition, the “%-inhibition of SGK2” value in test [2] (kinase SGK2, 1 μM) is given as -2%. The “%-inhibition of PEK” value in test [3] (kinase PEK, 1 μM) is recorded as 4.69%. Besides, in test [4], the “%-inhibition of NPM1-ALK” value was found to be 28% and the “%-inhibition of TAK1-TAB1” value amounted to 6%. Besides, in test [4] (1 µM), the “%-inhibition of EGFR(d746-750)” value was found to be 100%, the “%-inhibition of EGFR(d746-750/T790M)” value is listed as 85%, the “%-inhibition of EML4-ALK” value is 20% and the “%-inhibition of LYNb” value turned out to be 91%. Moreover, in test [4] (1 µM), the “%-inhibition of PKCβ2” value is -2.13% and the “%-inhibition of SRM” value was 39%.

On to `C#Cc1cccc(Nc2ncnc3cc(OCCOC)c(OCCOC)cc23)c1` [erlotinib], for which the “%-inhibition of DDR2” value in test [1] (1 µM) is given as 43%. Moreover, the “%-inhibition of SGK2” value in test [2] (1 µM) was 10%. Besides, the “%-inhibition of PEK” value in test [3] (1 µM) was found to be 1.35%. Further, in test [4], the “%-inhibition of NPM1-ALK” value is on record as 19% and the “%-inhibition of TAK1-TAB1” value is given as 5%. In test [4] (1 µM), the “%-inhibition of EML4-ALK” value is on record as 26%, the “%-inhibition of LYNb” value is on record as 60%, the “%-inhibition of PKCβ2” value was 6% and the “%-inhibition of SRM” value turned out to be 11%.

For the compound `CNC(=O)c1cc(Oc2ccc(NC(=O)Nc3ccc(Cl)c(C(F)(F)F)c3)c(F)c2)ccn1` [regorafenib], the “%-inhibition of DDR2” value in test [1] (kinase DDR2, compound at 1 μM) is 102%. For the same compound, in test [2] (kinase SGK2, 1 μM), the “%-inhibition of SGK2” value turned out to be 1%. Also, the “%-inhibition of PEK” value in test [3] (kinase PEK, 1 μM) is 12%. For the same compound, the “%-inhibition of EGFR(d746-750)” value in test [4] (setting [5]) worked out at 12%. Moreover, the “%-inhibition of EGFR(d746-750/T790M)” value in test [4] (setting [6]) worked out at 3.63%. The “%-inhibition of EML4-ALK” value in test [4] (setting [7]) is -7%. For the same compound, the “%-inhibition of LYNb” value in test [4] (kinase LYNb, compound at 1 μM) is reported as 85%. Also, in test [4] (kinase NPM1-ALK, 1 μM), the “%-inhibition of NPM1-ALK” value was -7%. For the same compound, the “%-inhibition of PKCβ2” value in test [4] (kinase PKCβ2, 1 μM) is listed as -9%. Also, the “%-inhibition of SRM” value in test [4] (kinase SRM, 1 μM) was determined as 66%. In test [4] (kinase TAK1-TAB1, 1 μM), the “%-inhibition of TAK1-TAB1” value amounted to 60%.

In the case of `Cc1ccc(Nc2nccc(N(C)c3ccc4c(C)n(C)nc4c3)n2)cc1S(N)(=O)=O` [pazopanib], the “%-inhibition of DDR2” value in test [1] (kinase DDR2, compound at 1 μM) turned out to be 96%. In test [2] (kinase SGK2, 1 μM), the “%-inhibition of SGK2” value is -3.44%. For the same compound, the “%-inhibition of PEK” value in test [3] (kinase PEK, 1 μM) is reported as 2.38%. For the same compound, in test [4], the “%-inhibition of NPM1-ALK” value was 21% and the “%-inhibition of TAK1-TAB1” value is recorded as -4.34%. In test [4] (1 µM), the “%-inhibition of EML4-ALK” value was 27%, the “%-inhibition of LYNb” value is 85%, the “%-inhibition of PKCβ2” value was determined as 4.55% and the “%-inhibition of SRM” value was found to be 63%.

With `CO[C@H]1C[C@@H]2CC[C@@H](C)[C@@](O)(O2)C(=O)C(=O)N2CCCC[C@H]2C(=O)O[C@H]([C@H](C)C[C@@H]2CC[C@@H](OC(=O)C(C)(CO)CO)[C@H](OC)C2)CC(=O)[C@H](C)/C=C(\C)[C@@H](O)[C@@H](OC)C(=O)[C@H](C)C[C@H](C)/C=C/C=C/C=C/1C` [temsirolimus], the “%-inhibition of DDR2” value in test [1] (kinase DDR2, compound at 1 μM) is given as -4%. The “%-inhibition of SGK2” value in test [2] (kinase SGK2, 1 μM) is reported as -2.66%. Besides, the “%-inhibition of PEK” value in test [3] (kinase PEK, 1 μM) stood at 8%. In test [4] (setting [5]), the “%-inhibition of EGFR(d746-750)” value is listed as -3%. In test [4] (setting [6]), the “%-inhibition of EGFR(d746-750/T790M)” value is given as -0.33%. Besides, in test [4] (setting [7]), the “%-inhibition of EML4-ALK” value is -7%. The “%-inhibition of LYNb” value in test [4] (kinase LYNb, compound at 1 μM) was -10%. For the same compound, the “%-inhibition of NPM1-ALK” value in test [4] (kinase NPM1-ALK, 1 μM) is -7.57%. Also, the “%-inhibition of PKCβ2” value in test [4] (kinase PKCβ2, 1 μM) is -1.6%. Moreover, the “%-inhibition of SRM” value in test [4] (kinase SRM, 1 μM) was -4%. Moreover, the “%-inhibition of TAK1-TAB1” value in test [4] (kinase TAK1-TAB1, 1 μM) is listed as -3.77%.

`Cc1cn(-c2cc(NC(=O)c3ccc(C)c(Nc4nccc(-c5cccnc5)n4)c3)cc(C(F)(F)F)c2)cn1` [nilotinib]: in test [1] (kinase DDR2, compound at 1 μM), the “%-inhibition of DDR2” value was found to be 102%. In test [2] (kinase SGK2, 1 μM), the “%-inhibition of SGK2” value came to 24%. For the same compound, the “%-inhibition of PEK” value in test [3] (kinase PEK, 1 μM) was determined as 0.387%. Further, in test [4], the “%-inhibition of NPM1-ALK” value was -64% and the “%-inhibition of TAK1-TAB1” value is 5%. Moreover, in test [4] (1 µM), the “%-inhibition of EML4-ALK” value is recorded as -12%, the “%-inhibition of LYNb” value is on record as 85%, the “%-inhibition of PKCβ2” value was found to be 1.66% and the “%-inhibition of SRM” value was 27%.

`COc1cc(Nc2c(C#N)cnc3cc(OCCCN4CCN(C)CC4)c(OC)cc23)c(Cl)cc1Cl` [bosutinib]: in test [1] (kinase DDR2, compound at 1 μM), the “%-inhibition of DDR2” value stood at 96%. In addition, in test [2] (kinase SGK2, 1 μM), the “%-inhibition of SGK2” value is on record as -3.37%. Besides, the “%-inhibition of PEK” value in test [3] (kinase PEK, 1 μM) was 11%. For the same compound, in test [4], the “%-inhibition of NPM1-ALK” value stood at 66% and the “%-inhibition of TAK1-TAB1” value came to 83%. Further, in test [4] (1 µM), the “%-inhibition of EGFR(d746-750)” value is 100%, the “%-inhibition of EGFR(d746-750/T790M)” value is given as 92%, the “%-inhibition of EML4-ALK” value was determined as 54% and the “%-inhibition of LYNb” value amounted to 94%. Moreover, in test [4] (1 µM), the “%-inhibition of PKCβ2” value is 22% and the “%-inhibition of SRM” value is on record as 58%.

Consider `CS(=O)(=O)CCNCc1ccc(-c2ccc3ncnc(Nc4ccc(OCc5cccc(F)c5)c(Cl)c4)c3c2)o1` [lapatinib], for which, in test [1] (kinase DDR2, compound at 1 μM), the “%-inhibition of DDR2” value is 83%. For the same compound, in test [2] (kinase SGK2, 1 μM), the “%-inhibition of SGK2” value was found to be 1.81%. Moreover, the “%-inhibition of PEK” value in test [3] (kinase PEK, 1 μM) was -0.193%. Also, in test [4], the “%-inhibition of NPM1-ALK” value was -3.28%. Besides, in test [4] (1 µM), the “%-inhibition of LYNb” value is recorded as 7%, the “%-inhibition of PKCβ2” value is recorded as -6% and the “%-inhibition of SRM” value was determined as 13%.
